≈ marks a conversion by molar mass, not a printed value. Read-outs that look alike come from different tables or passages of the source. Where a SMILES comes first, the peptide text is derived from it. [ ]: non-standard residue; d: D form. Gly(N(CH2)2(3-indolyl)) = O=C(O)CNCCc1c[nH]c2ccccc12; Nspe = C[C@H](NCC(=O)O)c1ccccc1; Nphe = O=C(O)CNCc1ccccc1; Nlys = NCCCCNCC(=O)O
How the values were obtained:
red blood cells = experiment: Hemolysis assay; assay type: cell-based, Sprague-Dawley mouse
Outline: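 Peptoid is mixed with 10% (v/v) PBS-washed erythrocytes (male Sprague-Dawley […], 13 weeks) and held 1 h at 37 °C. Hemolysis is calculated from 540 nm absorbance of the supernatant, with PBS as 0% and Triton X-100 as 100%.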

S. aureus ATCC 25923 = tested on: S. aureus ATCC 25923
Outline: (§1)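 Cation-adjusted MHB2 cultures (18 h, subcultured 4 h) adjusted to 2×10^5–5×10^5 CFU/mL in medium with 0.02% BSA and 0.001% acetic acid.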

E. coli ATCC25922 = tested on: E. coli ATCC25922
Outline: as §1

[1] = Tables 11-13, 24 hours at 37° C., maximum concentration 25 μM
[2] = Table 18, TFA salt vs counter ion-substituted (HCl, AcOH) peptoids

| SMILES | HC10 (red blood cells) | HC50 (red blood cells) | Hmax (100 μM) (red blood cells) | MIC S. aureus ATCC 25923 (S. aureus ATCC 25923; [1]) | MIC E. coli ATCC25922 (E. coli ATCC25922; [1]) | MIC S. aureus ATCC 25923 (S. aureus ATCC 25923; [2]) | MIC E. coli ATCC25922 (E. coli ATCC25922; [2]) |
| --- | --- | --- | --- | --- | --- | --- | --- |
| NCCCCNCC(=O)N(CCc1c[nH]c2ccccc12)CC(=O)N(CCc1c[nH]c2ccccc12)CC(=O)N(CCCCN)CC(=O)N(CCc1c[nH]c2ccccc12)CC(=O)N(CCc1c[nH]c2ccccc12)CC(=O)N(CCCCN)CC(=O)N(CCc1c[nH]c2ccccc12)CC(=O)N(CCc1c[nH]c2ccccc12)CC(=O)N(CCCCN)CC(=O)N(CCc1c[nH]c2ccccc12)CC(=O)N(CCc1c[nH]c2ccccc12)CC(N)=O [Peptoid 23] (H-[Nlys][Gly(N(CH2)2(3-indolyl))][Gly(N(CH2)2(3-indolyl))][Nlys][Gly(N(CH2)2(3-indolyl))][Gly(N(CH2)2(3-indolyl))][Nlys][Gly(N(CH2)2(3-indolyl))][Gly(N(CH2)2(3-indolyl))][Nlys][Gly(N(CH2)2(3-indolyl))][Gly(N(CH2)2(3-indolyl))]-NH2) | 17.1 µM | 45.2 µM | 72.2 ± 0.3% | 1.6 µM (≈ 3.41 µg/mL) | 25 µM (≈ 53.3 µg/mL) | – | – |
| C[C@@H](c1ccccc1)N(CC(N)=O)C(=O)CN(CCCCN)C(=O)CN(CCCCN)C(=O)CN(C(=O)CN(C(=O)CN(CCCCN)C(=O)CN(CCc1c[nH]c2ccccc12)C(=O)CN(C(=O)CN(CCCCN)C(=O)CN(C(=O)CN(C(=O)CNCCCCN)[C@@H](C)c1ccccc1)[C@@H](C)c1ccccc1)[C@@H](C)c1ccccc1)[C@@H](C)c1ccccc1)[C@@H](C)c1ccccc1 [Peptoid 24] | >100/>100 μM | >100/>100 μM | 1.5 ± 0.0% | 6.3 µM (≈ 11.5 µg/mL) | >25 µM | – | – |
| C[C@@H](c1ccccc1)N(CC(N)=O)C(=O)CN(C(=O)CN(CCCCN)C(=O)CN(C(=O)CN(CCCCN)C(=O)CN(CCCCN)C(=O)CN(CCc1c[nH]c2ccccc12)C(=O)CN(C(=O)CN(CCCCN)C(=O)CN(C(=O)CN(C(=O)CNCCCCN)[C@@H](C)c1ccccc1)[C@@H](C)c1ccccc1)[C@@H](C)c1ccccc1)[C@@H](C)c1ccccc1)[C@@H](C)c1ccccc1 [Peptoid 25] | >100/>100 μM | >100/>100 μM | 2.7 ± 0.4% | 3.1 µM (≈ 5.66 µg/mL) | >25 µM | – | – |
| C[C@@H](c1ccccc1)N(CC(N)=O)C(=O)CN(C(=O)CN(CCCCN)C(=O)CN(C(=O)CN(C(=O)CN(CCCCN)C(=O)CN(CCc1c[nH]c2ccccc12)C(=O)CN(CCCCN)C(=O)CN(CCCCN)C(=O)CN(C(=O)CN(C(=O)CNCCCCN)[C@@H](C)c1ccccc1)[C@@H](C)c1ccccc1)[C@@H](C)c1ccccc1)[C@@H](C)c1ccccc1)[C@@H](C)c1ccccc1 [Peptoid 26] | >100/>100 μM | >100/>100 μM | 0.7 ± 0.1% | 6.3 µM (≈ 11.5 µg/mL) | >25 µM | – | – |
| C[C@@H](c1ccccc1)N(CC(N)=O)C(=O)CN(C(=O)CN(CCCCN)C(=O)CN(C(=O)CN(C(=O)CN(CCCCN)C(=O)CN(CCc1c[nH]c2ccccc12)C(=O)CN(C(=O)CN(CCCCN)C(=O)CN(C(=O)CN(CCCCN)C(=O)CNCCCCN)[C@@H](C)c1ccccc1)[C@@H](C)c1ccccc1)[C@@H](C)c1ccccc1)[C@@H](C)c1ccccc1)[C@@H](C)c1ccccc1 [Peptoid 27] | >100/>100 μM | >100/>100 μM | 5.9 ± 0.2% | 3.1 µM (≈ 5.66 µg/mL) | 25 µM (≈ 45.6 µg/mL) | – | – |
| C[C@@H](c1ccccc1)N(CC(=O)N(CCCCN)CC(=O)N(CCCCN)CC(=O)N(CCc1c[nH]c2ccccc12)CC(=O)N(CCc1c[nH]c2ccccc12)CC(N)=O)C(=O)CN(CCCCN)C(=O)CN(C(=O)CN(C(=O)CN(CCCCN)C(=O)CN(C(=O)CN(C(=O)CNCCCCN)[C@@H](C)c1ccccc1)[C@@H](C)c1ccccc1)[C@@H](C)c1ccccc1)[C@@H](C)c1ccccc1 [Peptoid 28] (H-[Nlys][Nspe][Nspe][Nlys][Nspe][Nspe][Nlys][Nspe][Nlys][Nlys][Gly(N(CH2)2(3-indolyl))][Gly(N(CH2)2(3-indolyl))]-NH2) | >100/>100 μM | >100/>100 μM | 8.9 ± 1.4% | 6.3 µM (≈ 11.7 µg/mL) | 12.5 µM (≈ 23.3 µg/mL) | – | – |
| C[C@@H](c1ccccc1)N(CC(=O)N(CCCCN)CC(=O)N(CC(=O)N(CC(=O)N(CCCCN)CC(=O)N(CCc1c[nH]c2ccccc12)CC(=O)N(CCc1c[nH]c2ccccc12)CC(N)=O)[C@@H](C)c1ccccc1)[C@@H](C)c1ccccc1)C(=O)CN(CCCCN)C(=O)CN(CCCCN)C(=O)CN(C(=O)CN(C(=O)CNCCCCN)[C@@H](C)c1ccccc1)[C@@H](C)c1ccccc1 [Peptoid 30] (H-[Nlys][Nspe][Nspe][Nlys][Nlys][Nspe][Nlys][Nspe][Nspe][Nlys][Gly(N(CH2)2(3-indolyl))][Gly(N(CH2)2(3-indolyl))]-NH2) | >100/>100 μM | >100/>100 μM | 8.4 ± 0.5% | 3.1 µM (≈ 5.78 µg/mL) | 12.5 µM (≈ 23.3 µg/mL) | – | – |
| C[C@@H](c1ccccc1)N(CC(=O)N(CCCCN)CC(=O)N(CC(=O)N(CC(=O)N(CCCCN)CC(=O)N(CC(=O)N(CC(=O)N(CCCCN)CC(=O)N(CCc1c[nH]c2ccccc12)CC(=O)N(CCc1c[nH]c2ccccc12)CC(N)=O)[C@@H](C)c1ccccc1)[C@@H](C)c1ccccc1)[C@@H](C)c1ccccc1)[C@@H](C)c1ccccc1)C(=O)CN(CCCCN)C(=O)CNCCCCN [Peptoid 31] (H-[Nlys][Nlys][Nspe][Nlys][Nspe][Nspe][Nlys][Nspe][Nspe][Nlys][Gly(N(CH2)2(3-indolyl))][Gly(N(CH2)2(3-indolyl))]-NH2) | 59.0 µM | > 100 µM | 18.4 ± 5.0% | 3.1 µM (≈ 5.78 µg/mL) | 6.3 µM (≈ 11.7 µg/mL) | – | – |
| C[C@@H](c1ccccc1)N(CC(N)=O)C(=O)CN(C(=O)CN(CCCCN)C(=O)CN(C(=O)CN(CCCCN)C(=O)CN(CCCCN)C(=O)CN(C(=O)CN(C(=O)CN(CCCCN)C(=O)CN(CCc1c[nH]c2ccccc12)C(=O)CN(CCc1c[nH]c2ccccc12)C(=O)CNCCCCN)[C@@H](C)c1ccccc1)[C@@H](C)c1ccccc1)[C@@H](C)c1ccccc1)[C@@H](C)c1ccccc1 [Peptoid 33] | >100/>100 μM | >100/>100 μM | 5.0 ± 0.2% | 3.1 µM (≈ 5.78 µg/mL) | 12.5 µM (≈ 23.3 µg/mL) | – | – |
| C[C@@H](c1ccccc1)N(CC(N)=O)C(=O)CN(C(=O)CN(CCCCN)C(=O)CN(C(=O)CN(C(=O)CN(CCCCN)C(=O)CN(C(=O)CN(CCCCN)C(=O)CN(CCCCN)C(=O)CN(CCc1c[nH]c2ccccc12)C(=O)CN(CCc1c[nH]c2ccccc12)C(=O)CNCCCCN)[C@@H](C)c1ccccc1)[C@@H](C)c1ccccc1)[C@@H](C)c1ccccc1)[C@@H](C)c1ccccc1 [Peptoid 34] | >100/>100 μM | >100/>100 μM | 8.5 ± 1.1% | 3.1 µM (≈ 5.78 µg/mL) | 25 µM (≈ 46.6 µg/mL) | – | – |
| C[C@@H](c1ccccc1)N(CC(=O)N(CCCCN)CC(=O)N(CC(=O)N(CC(=O)N(CCCCN)CC(=O)N(CC(=O)N(CC(=O)N(CCCCN)CC(N)=O)[C@@H](C)c1ccccc1)[C@@H](C)c1ccccc1)[C@@H](C)c1ccccc1)[C@@H](C)c1ccccc1)C(=O)CN(C(=O)CN(CCCCN)C(=O)CN(CCc1c[nH]c2ccccc12)C(=O)CNCCc1c[nH]c2ccccc12)[C@@H](C)c1ccccc1 [Peptoid 37-1] (H-[Gly(N(CH2)2(3-indolyl))][Gly(N(CH2)2(3-indolyl))][Nlys][Nspe][Nspe][Nlys][Nspe][Nspe][Nlys][Nspe][Nspe][Nlys]-NH2) | 14.4 µM | 56.5 µM | 86.6 ± 5.7% | – | – | 3.1 µM | 6.3 µM |
| C[C@@H](c1ccccc1)N(CC(=O)N(CCCCN)CC(=O)N(CC(=O)N(CC(=O)N(CCCCN)CC(=O)N(CC(=O)N(CC(=O)N(CCCCN)CC(N)=O)[C@@H](C)c1ccccc1)[C@@H](C)c1ccccc1)[C@@H](C)c1ccccc1)[C@@H](C)c1ccccc1)C(=O)CN(C(=O)CN(CCCCN)C(=O)CN(CCc1c[nH]c2ccccc12)C(=O)CNCCc1c[nH]c2ccccc12)[C@@H](C)c1ccccc1 [Peptoid 37-2] (H-[Gly(N(CH2)2(3-indolyl))][Gly(N(CH2)2(3-indolyl))][Nlys][Nspe][Nspe][Nlys][Nspe][Nspe][Nlys][Nspe][Nspe][Nlys]-NH2) | 12.5 µM | 26.0 µM | 98.9 ± 8.0% | – | – | 1.6 µM | 6.3 µM |
| C[C@@H](c1ccccc1)N(CC(=O)N(CCCCN)CC(=O)N(CCCCN)CC(=O)N(CC(=O)N(CC(=O)N(CCCCN)CC(=O)N(CC(=O)N(CC(=O)N(CCCCN)CC(N)=O)[C@@H](C)c1ccccc1)[C@@H](C)c1ccccc1)[C@@H](C)c1ccccc1)[C@@H](C)c1ccccc1)C(=O)CN(CCCCN)C(=O)CN(CCc1c[nH]c2ccccc12)C(=O)CNCCc1c[nH]c2ccccc12 [Peptoid 38] (H-[Gly(N(CH2)2(3-indolyl))][Gly(N(CH2)2(3-indolyl))][Nlys][Nspe][Nlys][Nlys][Nspe][Nspe][Nlys][Nspe][Nspe][Nlys]-NH2) | >100/>100 μM | >100/>100 μM | 5.9 ± 0.5% | 6.3 µM (≈ 11.7 µg/mL) | 12.5 µM (≈ 23.3 µg/mL) | – | – |
| C[C@@H](c1ccccc1)N(CC(=O)N(CCCCN)CC(=O)N(CC(=O)N(CC(=O)N(CCCCN)CC(=O)N(CCCCN)CC(=O)N(CC(=O)N(CCCCN)CC(=O)N(CCc1c[nH]c2ccccc12)CC(=O)N(CCc1c[nH]c2ccccc12)CC(N)=O)Cc1ccccc1)[C@@H](C)c1ccccc1)[C@@H](C)c1ccccc1)C(=O)CN(C(=O)CNCCCCN)[C@@H](C)c1ccccc1 [Peptoid 39] (H-[Nlys][Nspe][Nspe][Nlys][Nspe][Nspe][Nlys][Nlys][Nphe][Nlys][Gly(N(CH2)2(3-indolyl))][Gly(N(CH2)2(3-indolyl))]-NH2) | 100/>100 μM | 100/>100 μM | 10.2 ± 0.3% | 6.3 µM (≈ 11.7 µg/mL) | 25 µM (≈ 46.3 µg/mL) | – | – |

From patent US20240226228A1, “ANTIMICROBIAL PEPTOID HAVING IMPROVED SELECTIVITY AND ANTIMICROBIAL COMPOSITION COMPRISING SAME” (priority 2021, published 2024)
